Data as given in PubChem BioAssay AID624359 (Broad Institute, 2012).
Results filed as inconclusive are left out. The source made the active and inactive calls.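 How the source made its calls: active means fitted curve reaches 35% inhibition at a concentration up to twice the top valid dose; inconclusive means no clear call, values can overlap the other calls; inactive means the rest, including signal moving the opposite way.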

tested on: HEK293 LMP1 TES2 NF-kB luciferase reporter, 16 h; test: LMP1-induced NF-kB luciferase signal inhibition – cell-based, EBV LMP1, dry powder, dose response (AID 624359); conditions: not given

**Q.** With `Cc1ccc(NC(=O)C2CCN(S(=O)(=O)c3ccc4c(c3)NC(=O)C(C)S4)CC2)cc1Cl` (stereo not given) as the molecule, how does the AC35 read?
**A.** 4.01 µM

**Q.** Which AC35 does the source give for `C/C(=N\NC(=S)N1CCCCC1)c1cccc(C)n1` here?
**A.** 0.492 µM

**Q.** With `COCCCNC(=O)C(C)Sc1nnc2c3cc(C)ccc3n(Cc3ccccc3F)c2n1` (stereo not given) as the molecule, how does the AC35 read?
**A.** 25.8 µM

**Q.** For `S=C(N/N=C(\c1ccccc1)c1ccccn1)N(Cc1ccccn1)Cc1ccccn1`, which AC35 is on record?
**A.** 6 µM

**Q.** Which AC35 does the source give for `S=C(NCc1ccccn1)N/N=C/c1ccccn1` here?
**A.** 5.41 µM

**Q.** Which AC35 does the source give for `CC(C)=CCN(C(=O)C#Cc1ccccc1)[C@H](CO)c1ccccc1` here?
**A.** 3.79 µM

**Q.** With `C/C=C/C/C=C/CCC(=O)[C@H]1O[C@H]1C(N)=O` as the molecule, how does the AC35 read?
**A.** 13.2 µM

**Q.** For `C/C(=N\NC(=S)N1CCCC1)c1ccccn1`, which AC35 is on record?
**A.** 0.884 µM

**Q.** With `COc1ccc2[nH]c(C(=O)N/N=C/c3ccc(O)cc3O)cc2c1` as the molecule, how does the AC35 read?
**A.** 9.11 µM

**Q.** For `O=C(Nc1cc(C(F)(F)F)cc(C(F)(F)F)c1)Nc1cnn(-c2ccc([N+](=O)[O-])cc2)c1C(F)(F)F`, which AC35 is on record?
**A.** 40.7 µM

**Q.** Which AC35 does the source give for `O=c1[nH]c(=O)n([C@H]2C[C@H](O)[C@@H](CO)O2)cc1C(F)(F)F` here?
**A.** 8.74 µM

**Q.** Which AC35 does the source give for `C[C@H](CO)N1C[C@H](C)[C@H](CN(C)C(=O)Nc2ccc(C(F)(F)F)cc2)OCCCC[C@H](C)Oc2ccc(NC(=O)Nc3ccc(F)cc3)cc2C1=O` here?
**A.** 16.6 µM

**Q.** For `CCc1sc(C(=O)Nc2ncccc2O)cc1C`, which AC35 is on record?
**A.** 20.8 µM

**Q.** Which AC35 does the source give for `C[C@H](CO)N1C[C@H](C)[C@@H](CN(C)Cc2ccc(-c3ccccc3)cc2)Oc2ccc(NC(=O)Nc3cccc4ccccc34)cc2CC1=O` here?
**A.** 4.13 µM

**Q.** For `CCC(Sc1nnc2c3ccccc3n(Cc3ccc(Br)cc3)c2n1)C(=O)NCCCN1CCOCC1` (stereo not given), which AC35 is on record?
**A.** 5.65 µM

**Q.** With `Cc1ccc(S(=O)(=O)Nc2ccc3c(c2)C(=O)N([C@@H](C)CO)C[C@H](C)[C@@H](CN(C)C(=O)CCC(F)(F)F)OCCCC[C@H](C)O3)cc1` as the molecule, how does the AC35 read?
**A.** 0.619 µM

**Q.** Which AC35 does the source give for `C/C(=N\NC(=S)N1CC2CCC(CC2)C1)c1ccccn1` here?
**A.** 5.42 µM

**Q.** With `O=C1/C(=C/c2ccncc2)SC(=S)N1Cc1ccccc1` as the molecule, how does the AC35 read?
**A.** 29 µM

**Q.** For `c1ccc(Cn2c3ccccc3c3nnc(SCCN4CCCCC4)nc32)cc1`, which AC35 is on record?
**A.** 11 µM

**Q.** Which AC35 does the source give for `Fc1ccc2c(c1)c1nnc(SCCN3CCOCC3)nc1n2Cc1ccccc1` here?
**A.** 10.1 µM

**Q.** For `O=C(CCc1ccccc1)NC(c1cccs1)c1cc(Cl)c2cccnc2c1O` (stereo not given), which AC35 is on record?
**A.** 43.9 µM

**Q.** Which AC35 does the source give for `C/C(=N\NC(=S)N1CCC1)c1ccccn1` here?
**A.** 1.33 µM

**Q.** Which AC35 does the source give for `CCN1CCN(C(c2cccnc2)c2cc(Cl)c3cccnc3c2O)CC1` (stereo not given) here?
**A.** 7.4 µM

**Q.** For `COc1cccc(/C=N/Nc2ncnc3c2ncn3Cc2ccccc2)c1O`, which AC35 is on record?
**A.** 43.4 µM

**Q.** With `COc1ccccc1[C@]1(C)ON(c2ccccc2C(F)(F)F)C1=O` as the molecule, how does the AC35 read?
**A.** 7.88 µM

**Q.** Which AC35 does the source give for `CCCSc1nnc2c3ccccc3n(Cc3ccccc3)c2n1` here?
**A.** 3.4 µM

**Q.** Which AC35 does the source give for `C[C@@H]1CN([C@@H](C)CO)C(=O)c2cc(NC(=O)Nc3ccc4c(c3)OCO4)ccc2O[C@H]1CN(C)CC1CCCCC1` here?
**A.** 0.738 µM

**Q.** Which AC35 does the source give for `C/C(=N\NC(=S)N1CCN(c2ccccn2)CC1)c1ccccn1` here?
**A.** 10.5 µM

**Q.** Which AC35 does the source give for `CC12CCC3C(CC=C4CC(O)CCC43CO)C1CCC2OC(=O)c1ccccc1` (stereo not given) here?
**A.** 6.56 µM

**Q.** For `C[C@H](CO)N1C[C@H](C)[C@@H](CN(C)CC2CC2)OCCCC[C@H](C)Oc2ccc(NC(=O)Nc3cccc4ccccc34)cc2C1=O`, which AC35 is on record?
**A.** 0.541 µM

**Q.** Which AC35 does the source give for `Nc1ccn([C@@H]2O[C@H](CO)[C@@H](O)C2O)c(=O)n1` (stereo not given in full) here?
**A.** 27.5 µM

tested on: not listed separately; test: as above; conditions: HEK293 LMP1 TES2 NF-kB luciferase reporter, 16 h; at 12 µM (top of the series)

**Q.** For `C/C(=N\NC(=S)N1CCN(C2CCCCCC2)CC1)c1ccccn1`, which activity change, negative = inhibition is on record?
**A.** 33.5% (inactive)

same assay, conditions: HEK293 LMP1 TES2 NF-kB luciferase reporter, 16 h; at 15 µM (top of the series)

**Q.** With `C=C1C[C@]23C[C@@]1(O)CC[C@H]2[C@@]12C=C[C@H](O)[C@@](C)(C(=O)O1)[C@H]2[C@@H]3C(=O)O` as the molecule, how does the activity change, negative = inhibition read?
**A.** -4.73% (inactive)

same assay, conditions: HEK293 LMP1 TES2 NF-kB luciferase reporter, 16 h; at 26 µM (top of the series)

**Q.** Which activity change, negative = inhibition does the source give for `C[C@@H]1CCCCO[C@@H](CN(C)Cc2ccccc2)[C@H](C)CN([C@H](C)CO)C(=O)c2cc(NC(=O)Nc3ccc4c(c3)OCO4)ccc2O1` here?
**A.** -6.74% (inactive)

**Q.** For `C/C(=N\NC(=S)Nc1cccc(C)c1)c1ccccn1`, which activity change, negative = inhibition is on record?
**A.** 74.3% (inactive)

**Q.** For `C[C@@H]1CN([C@@H](C)CO)C(=O)c2cccc(NC(=O)Nc3cccc4ccccc34)c2O[C@H]1CN(C)C(=O)Nc1ccc(C(F)(F)F)cc1`, which activity change, negative = inhibition is on record?
**A.** 26.9% (inactive)

**Q.** For `C/C(=N\NC(=S)N1CC2CCC(CC2)C1)c1ccncn1`, which activity change, negative = inhibition is on record?
**A.** -1.33% (inactive)

**Q.** Which activity change, negative = inhibition does the source give for `COc1ccccc1NC(=S)N/N=C(\C)c1ccccn1` here?
**A.** -20.4% (inactive)

**Q.** With `CC1=C(C(=O)OCc2ccc3c(c2)OCO3)C(c2ccc(F)cc2)NC(=O)N1` (stereo not given) as the molecule, how does the activity change, negative = inhibition read?
**A.** -13.4% (inactive)

**Q.** With `C=CCN1Cc2ccccc2[C@@H]2OC(c3ccc(OCCCO)cc3)=N[C@]2(CCC(=O)OC(C)(C)C)C1=O` as the molecule, how does the activity change, negative = inhibition read?
**A.** 3.78% (inactive)

**Q.** With `COc1ccc(C(=O)Nc2ccc3[nH]ccc3c2)cc1` as the molecule, how does the activity change, negative = inhibition read?
**A.** 13.6% (inactive)

**Q.** With `C[C@H](CO)N1C[C@H](C)[C@@H](CN(C)CC2CCCCC2)OCCCC[C@H](C)Oc2ccc(NC(=O)Nc3cccc4ccccc34)cc2C1=O` as the molecule, how does the activity change, negative = inhibition read?
**A.** 23.2% (inactive)

**Q.** Which activity change, negative = inhibition does the source give for `CC1CN(C(=O)CSc2nnc3c4ccccc4n(Cc4cccc(Cl)c4)c3n2)CCN1C(=O)c1ccccc1F` (stereo not given) here?
**A.** 42.2% (inactive)

**Q.** With `C/C(=N\NC(=S)Nc1ccccc1Cl)c1ccccn1` as the molecule, how does the activity change, negative = inhibition read?
**A.** 51.4% (inactive)

**Q.** For `CC(=O)Nc1nc(C)c(-c2csc(Nc3ccc(O)cc3)n2)s1`, which activity change, negative = inhibition is on record?
**A.** 83.3% (inactive)

**Q.** For `CNC[C@@H]1Oc2ccc(NS(=O)(=O)c3cn(C)cn3)cc2CC(=O)N([C@H](C)CO)C[C@@H]1C`, which activity change, negative = inhibition is on record?
**A.** 7.33% (inactive)

**Q.** With `O=c1[nH]c(Nc2nc3ccccc3o2)nc2c1CCCC2` as the molecule, how does the activity change, negative = inhibition read?
**A.** 2.84% (inactive)

**Q.** Which activity change, negative = inhibition does the source give for `COc1ccc(-c2csc3ncnc(NCCN4CCOCC4)c23)cc1` here?
**A.** 9.04% (inactive)

**Q.** With `C[C@@H]1CCCCO[C@H](CN(C)CC2CCCCC2)[C@H](C)CN([C@@H](C)CO)C(=O)c2cc(NC(=O)NC3CCCCC3)ccc2O1` as the molecule, how does the activity change, negative = inhibition read?
**A.** -3.54% (inactive)

**Q.** For `CCc1ccc(/C=C/C(=O)C2C(=O)c3ccccc3C2=O)cc1`, which activity change, negative = inhibition is on record?
**A.** 28.8% (inactive)

**Q.** Which activity change, negative = inhibition does the source give for `CCn1c2ccccc2c2cc(/C=N/n3cnnc3)ccc21` here?
**A.** 30.3% (inactive)

**Q.** For `Cc1ccc(S(=O)(=O)NC(CC(C)C)C(=O)NCC(c2ccco2)N2CCCCC2)cc1` (stereo not given), which activity change, negative = inhibition is on record?
**A.** -1.92% (inactive)

**Q.** For `CSc1nc(-c2ccc(C)cc2)nc(C(Cl)Cl)n1`, which activity change, negative = inhibition is on record?
**A.** 12% (inactive)

**Q.** With `C[C@@H]1CCCCO[C@H](CN(C)S(=O)(=O)c2ccccc2)[C@@H](C)CN([C@@H](C)CO)C(=O)c2cc(N(C)C)ccc2O1` as the molecule, how does the activity change, negative = inhibition read?
**A.** -2.27% (inactive)

**Q.** Which activity change, negative = inhibition does the source give for `COc1ccc(-c2cc3nc4n(c(=O)c3s2)CCC4)cc1` here?
**A.** 20.7% (inactive)

**Q.** For `c1ccc(-c2cn3c4c(sc3n2)CCCC4)cc1`, which activity change, negative = inhibition is on record?
**A.** 6.83% (inactive)

**Q.** With `Oc1cccc(C(Nc2nccs2)c2ccc3cccnc3c2O)c1` (stereo not given) as the molecule, how does the activity change, negative = inhibition read?
**A.** 23.7% (inactive)

**Q.** With `CSC(=S)N/N=C(\C)c1cccc(C)n1` as the molecule, how does the activity change, negative = inhibition read?
**A.** 8.74% (inactive)

**Q.** For `Cc1c(NC(=O)c2cccc(NC(=O)COc3ccccc3C#N)c2)c(=O)n(-c2ccccc2)n1C`, which activity change, negative = inhibition is on record?
**A.** 47.5% (inactive)

**Q.** With `COc1ccc2nc(Nc3nc(C)c(CCC(C)C)c(=O)[nH]3)nc(C)c2c1` as the molecule, how does the activity change, negative = inhibition read?
**A.** 42.5% (inactive)

**Q.** With `C[C@@H]1CN([C@@H](C)CO)C(=O)c2cc(NC(=O)Nc3ccc(C(F)(F)F)cc3)ccc2O[C@@H](C)CCCCO[C@H]1CN(C)Cc1ccc(C(F)(F)F)cc1` as the molecule, how does the activity change, negative = inhibition read?
**A.** 24% (inactive)

**Q.** With `C[C@@H]1CCCCO[C@H](CN(C)C(=O)c2ccccc2)[C@H](C)CN([C@@H](C)CO)C(=O)c2cc(NC(=O)Nc3ccc(F)cc3)ccc2O1` as the molecule, how does the activity change, negative = inhibition read?
**A.** -13.1% (inactive)

**Q.** With `O=C(CSc1nnc2c3ccccc3n(Cc3ccccc3)c2n1)NCc1ccco1` as the molecule, how does the activity change, negative = inhibition read?
**A.** 12.9% (inactive)

**Q.** Which activity change, negative = inhibition does the source give for `C[C@@H]1CCCCO[C@H](CN(C)C(=O)CCC(F)(F)F)[C@H](C)CN([C@@H](C)CO)C(=O)c2cc(NC(=O)CCC(F)(F)F)ccc2O1` here?
**A.** -12.3% (inactive)

**Q.** For `CCc1ccc(/C=C2\SC(=S)N(CCCC(=O)Nc3ccccn3)C2=O)cc1`, which activity change, negative = inhibition is on record?
**A.** 9.57% (inactive)
